Results on 29 sequences are retold here after the supplement of paper PMC11208160.
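Further: IS621 bridge recombinase in Escherichia coli cells against a fixed T5 target plasmid.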

The nature of the data set: recombinant UMI read abundance after kanamycin selection (control-corrected) (log10(CPM+1)); higher = more efficient recombination; extreme values may be limits of the assay; sequences stand for … in AGTGCAGAGAAAATCGGCCAGTTTTCTCTGCCTGCAGTCCGCATGCCGTGGGACCCCTTGGGTTCTAACCTGTTGCCTAGATTTATGCAGCGGACTGCCTTTCTCCCAAAGTGATAAACCGG…AGGTTGGTTTCACT; site = the 11-nt donor. In a few lines: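 Values are reported as log10(CPM+1), obtained by converting sequencing counts to CPM, averaging replicates and scaling by control-derived factors. The counts came from recombinant UMIs amplified by PCR across the donor–target junction. These UMIs came from a pooled Escherichia coli screen of donor and donor-binding-loop pairs for the IS621 bridge recombinase, plated with IPTG (0.07 mM) plus kanamycin or left unselected, in two replicates each.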
With “TCCACGCCATGGACCGGTTTTCCCGGTAATCCGTATTTGTA (site GCCACGCCTTA)”, the “recombinant UMI read abundance (log10)” value is 0.00791.
The same measure for “TCCACGCCATGGACCGGTTTTCCCGGTAATCCGTATTTGTA (site TCCACGCCTTA)”: 0.0284.
As for “TCCACGGCATGGACCGGTTTTCCCGGTAATCCGTATTTGCG (site TCCACAGCTCG)”, the figure is 0.0432; as for “TCCACGGCATGGACCGGTTTTCCCGGTAATCCGTATTTGCG (site TCCACCGCTCG)”, 0.023.
As for “TCCACGGCATGGACCGGTTTTCCCGGTAATCCGTATTTGCG (site TCCACGGCTCG)”, the figure is 0.0249.
As for “TCCACGGCATGGACCGGTTTTCCCGGTAATCCGTATTTGCG (site TCCACTGCTCG)”, the “recombinant UMI read abundance (log10)” value worked out at 0.
As for “TCCACTTCATGGACCGGTTTTCCCGGTAATCCGTATTTGCC (site TCCAATTCTGG)”, the figure is 0; as for “TCCACTTCATGGACCGGTTTTCCCGGTAATCCGTATTTGCC (site TCCACTTCTGG)”, 0.
As for “TCCACTTCATGGACCGGTTTTCCCGGTAATCCGTATTTGCC (site TCCAGTTCTGG)”, the figure is 0; as for “TCCACTTCATGGACCGGTTTTCCCGGTAATCCGTATTTGCC (site TCCATTTCTGG)”, 0.
The same measure for “TCCAGATCATGGACCGGTTTTCCCGGTAATCCGTATTTGGG (site TCCAGATCTCC)”: 0; for “TCCAGTGCATGGACCGGTTTTCCCGGTAATCCGTATTTGCT (site TCCAGTGCTAG)”: 0.
As for “TCCATTCCATGGACCGGTTTTCCCGGTAATCCGTATTTGGA (site TCCATTCCTTC)”, the “recombinant UMI read abundance (log10)” value came out at 0.0134.
The same measure for “TCCCAAACATGGACCGGTTTTCCCGGTAATCCGTATTTGCT (site TCCCAAACTAG)”: 0.0138.
As for “TCCCACCCATGGACCGGTTTTCCCGGTAATCCGTATTTGAT (site TCCCACCCTAT)”, the figure is 0.0298.
As for “TCCCGCCCATGGACCGGTTTTCCCGGTAATCCGTATTTGCT (site TCCCGCCCTAG)”, the figure is 0.00858; as for “TCCCTTCCATGGACCGGTTTTCCCGGTAATCCGTATTTGCG (site TCCCTTCCTCG)”, 0; as for “TCCGCTGCATGGACCGGTTTTCCCGGTAATCCGTATTTGAA (site TCCGCTGCTTT)”, 0.
As to “TCCGGTGCATGGACCGGTTTTCCCGGTAATCCGTATTTGCC (site TCCGGTGCTGG)”, the “recombinant UMI read abundance (log10)” value is 0.
As for “TCCTACCCATGGACCGGTTTTCCCGGTAATCCGTATTTGGT (site TCCTACCCTAC)”, the figure is 0.00951; as for “TCCTAGCCATGGACCGGTTTTCCCGGTAATCCGTATTTGTA (site TCCTAGCCTTA)”, 0.0223; as for “TCCTATTCATGGACCGGTTTTCCCGGTAATCCGTATTTGCC (site TCCAATTCTGG)”, 0.
The same measure for “TCCTATTCATGGACCGGTTTTCCCGGTAATCCGTATTTGCC (site TCCCATTCTGG)”: 0; for “TCCTATTCATGGACCGGTTTTCCCGGTAATCCGTATTTGCC (site TCCGATTCTGG)”: 0; for “TCCTATTCATGGACCGGTTTTCCCGGTAATCCGTATTTGCC (site TCCTATTCTGG)”: 0.
As for “TCCTCCCCATGGACCGGTTTTCCCGGTAATCCGTATTTGCG (site TCCTCCCCTCG)”, the figure is 0.00424; as for “TCCTCCGCATGGACCGGTTTTCCCGGTAATCCGTATTTGCG (site TCCACCGCTCG)”, 0.00517.
As to “TCCTCCGCATGGACCGGTTTTCCCGGTAATCCGTATTTGCG (site TCCCCCGCTCG)”, the “recombinant UMI read abundance (log10)” value was 0.0138.
Turning to “TCCTCCGCATGGACCGGTTTTCCCGGTAATCCGTATTTGCG (site TCCGCCGCTCG)”, the “recombinant UMI read abundance (log10)” value worked out at 0.
